Experimental data published in publication PMC2882941 (Pharmaceutical research, 2009).

Target: T1, hASBT (Homo sapiens, UniProt Q12908)
T1 sequence (Q12908 1-348): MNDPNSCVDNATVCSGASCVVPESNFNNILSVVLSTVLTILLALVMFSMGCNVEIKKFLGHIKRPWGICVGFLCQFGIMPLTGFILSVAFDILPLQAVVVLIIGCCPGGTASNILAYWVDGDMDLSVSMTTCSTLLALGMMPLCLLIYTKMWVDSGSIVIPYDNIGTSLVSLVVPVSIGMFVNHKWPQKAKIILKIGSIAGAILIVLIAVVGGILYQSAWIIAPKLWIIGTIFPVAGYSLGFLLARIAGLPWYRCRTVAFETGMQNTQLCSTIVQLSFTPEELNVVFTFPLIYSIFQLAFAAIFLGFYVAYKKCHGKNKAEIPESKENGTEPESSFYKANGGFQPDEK
Experiment: in vitro
Details: MDCK

## C[C@H](CCC(=O)NCCS(=O)(=O)O)[C@H]1CC[C@H]2[C@@H]3[C@H](O)C[C@@H]4C[C@H](O)CC[C@]4(C)[C@H]3C[C@H](O)[C@]12C [TCA, Taurocholate]
  Papp: 0.089 to 0.3 ×10⁻⁶ cm/s
